Measurements taken from patent publication US6500823B1, “Unsaturated hydroximic acid derivatives as per abstract inhibitors” (N-Gene Research Laboratories, Inc., priority 1998, dated 2002).
Where a name gives a salt, the structure may show the parent alone.

Assays:
[1] = molecular target: T1, poly-ADP-ribose polymerase from rat liver (Rattus norvegicus, UniProt P27008); assay: In vitro PARP inhibition on isolated enzyme; format: biochemical; conditions: isolated rat liver enzyme; ± SEM from four parallel measurements; read-out: PARP I0.5 mg/l (converted)
T1 construct: We have isolated the poly-ADP-ribose polymerase from rat liver; from tissue; host or cells: rat liver
T1 sequence (P27008 whole entry): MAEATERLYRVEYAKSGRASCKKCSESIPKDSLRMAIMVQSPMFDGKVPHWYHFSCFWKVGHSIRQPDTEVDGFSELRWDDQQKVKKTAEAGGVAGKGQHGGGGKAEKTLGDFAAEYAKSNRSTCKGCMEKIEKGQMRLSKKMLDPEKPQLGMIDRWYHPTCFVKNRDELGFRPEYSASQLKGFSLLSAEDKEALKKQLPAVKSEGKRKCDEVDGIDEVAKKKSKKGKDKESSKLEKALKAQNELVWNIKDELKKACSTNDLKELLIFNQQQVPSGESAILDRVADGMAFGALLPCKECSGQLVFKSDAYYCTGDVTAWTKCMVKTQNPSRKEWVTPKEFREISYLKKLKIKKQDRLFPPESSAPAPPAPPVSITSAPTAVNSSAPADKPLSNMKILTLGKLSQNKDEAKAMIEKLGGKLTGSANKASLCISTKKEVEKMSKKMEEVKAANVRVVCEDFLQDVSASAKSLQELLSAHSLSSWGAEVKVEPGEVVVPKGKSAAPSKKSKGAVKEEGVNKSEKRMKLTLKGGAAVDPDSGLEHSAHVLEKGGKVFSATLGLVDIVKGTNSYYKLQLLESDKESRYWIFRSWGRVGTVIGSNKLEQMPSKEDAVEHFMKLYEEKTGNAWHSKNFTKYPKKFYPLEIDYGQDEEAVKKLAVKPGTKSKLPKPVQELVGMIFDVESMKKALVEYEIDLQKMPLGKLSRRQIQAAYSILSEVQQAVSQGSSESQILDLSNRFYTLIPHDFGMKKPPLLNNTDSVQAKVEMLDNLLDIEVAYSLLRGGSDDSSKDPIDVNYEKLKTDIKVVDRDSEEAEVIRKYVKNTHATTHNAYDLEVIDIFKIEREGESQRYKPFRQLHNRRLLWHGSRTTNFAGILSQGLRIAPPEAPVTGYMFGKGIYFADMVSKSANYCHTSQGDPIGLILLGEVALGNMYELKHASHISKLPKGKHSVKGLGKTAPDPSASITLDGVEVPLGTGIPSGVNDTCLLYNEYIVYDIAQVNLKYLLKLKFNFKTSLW
Method: We have isolated the poly-ADP-ribose polymerase from rat liver according to the article Shah.G. M.,Anal Biochem, 227, 1-13 (1995).
We have determined the PARP activation in 130 μl of reaction mixture, which consists of: 100 mM Tris-HCl puffer, pH 8.0, 10 mM MgCl2, 10% glycerol, 1.5 mM DTT, 100 μg of (32P), or (3H), NAD+, 10 μg of histone. We have stopped the reaction after 10 minutes with 8% perchloric acid and seperated the protein through centrifugation (10 minutes, 10.000×g). We have washed the precipitate with 8% perchloric acid, and we measured the radioactivity connected to the protein with scintillation counter.

male SPRD rats = assay: Reperfusion induced arrhythmia after LAD occlusion, survival rate; format: in vivo, rat; conditions: for responders at 1 mg/kg / responders at 5 mg/kg: Rattus norvegicus, iv, read-out: % SURV; for responders at 5 mg/kg: control 15.38; for effect on survival of reperfusion arrhythmia, in words: compared with Example 2 (100% survival)
Method: Experiments were carried out in male SPRD rats (acceptable body weight range: 300-350 g). The animals were anesthetized with sodium pentobarbital (Nembutal®: 60 mg/kg intraperitoneally) and remained breathing spontaneously. The animals were ventilated with respirator (MTA Kutesz) by using trachea cannule which was inserted after tracheotomy. The standard lead of the ECG II is monitored. Right femoral artery was catheterized and connected to a pressure transducer (BPR-01, Experimetria, Hungary), a preamplifier and pulsotachometer (HG-M, Experimetria, Hungary) for arterial blood pressure and heart rate measurement, respectively. The external jugular vein was cannulated for drug administration. After thoracotomy a silk (braided, coated 4-0) was placed under the left anterior coronary (LAD) artery. After a few minutes' stabilization period, a 5 min occlusion of LAD artery was applied, followed by a 10 min reperfusion period. The survival rate was evaluated.

[2] = test system: carnitine-palmitoyl transferase (CPTI); assay: Determination of CPTI inhibition; format: biochemical; conditions: None = 100; sub-millimolar concentration range
[3] = test system: mouse HSP-70 gene promoter in mouse fibroblast L929 cells; assay: HSP-70 promoter-luciferase reporter gene assay; format: cell-based; conditions: Control = 100; 10 μl of 10^-2 M solution to 1 ml culture, 30 min, 1 hour regeneration
Description: The activity of HSP-70 was studied by reporter gene assay forming a DNA hybrid. To the promoter sequence of HSP-70 encoding the heat shock protein was fused a gene of a protein that can be detected by a well-measurable enzyme activity. Biotechnological processes were used. As reporter gene luciferase enzyme was employed, the activity of which can be well determined by luminescence measurement. If the promoter of the gene of the luciferase enzyme is substituted by the promoter of the HSP-70 gene, then the change in the activity of the luciferase enzyme i.e. the change of the frequency of the transcription from the gene correlates with the frequency of the transcription of the HSP-70 gene that proceeds in the given circumstances. In this way, if a substance or process influences the expression of the HJSP-70 gene, the effect can be studied through the measurement of the luciferase enzyme activity. The effect of the substances to be tested on the HSP-70 expression was studied in such an experimental system.
A double-stranded DNA circular molecule i.e. a plasmid containing the HSP-70 reporter gene was constructed to perform the measurements. An almost 600 bp long sequence of the mouse HSP-70 gene promoter (5′ direction from the start site of the gene) was fused to the coding sequence of the luciferase gene originated from Photymus pyralis. The applied promoter sequence contained several protein binding sites facilitating the expression of the HSP-70 gene. The HSP promoter-luciferase heterologous gene construct was built in a pBR based plasmid vector that can be selected for neomycin. This HSP-70-luciferase plasmid was transfected into mouse fibroblast L929 cells. The assay was performed as follows.
The HSP-70-luc plasmid containing L929 cells are grown in DMEM (Dulbecco's Modified Eagle's Medium) medium supplemented with 5% FCS (Fetal Calf Serum). 10^4 cells are plated in the wells of a 24-well Costar cell culture plate in 1 ml of culture medium. Test substances are dissolved in PBS (Phosphate Buffered Saline) in 10^−2 M concentration. After attachment of the cells (3-4 hours after plating) 10 μl of the solution are given to the cultures and cells are incubated for 30 min. at 37° C. in a CO2 thermostat. Culture medium is then changed for fresh one (without test substance) and cells are allowed to regenerate for 1 hour at 37° C., then once washed with PBS. After removal of PBS 40 μl of 1× lysis buffer are added to the cells, and the samples are kept on ice for 30 minutes. Then the samples are transferred into Eppendorf vials and centrifuged at 14000 rpm for 20 min at 4° C. 5 μl of the supernatant is added to 25 μl of luciferase assay buffer and the luminescence of the samples is measured for 25 seconds in a luminometer.

[4] = molecular target: Moloney murine leukemia virus reverse transcriptase (Moloney murine leukemia virus, UniProt P03355); assay: Reverse transcriptase inhibition, (3H)dTTP incorporation; format: biochemical; conditions: for inhibition at 0.5 µg/mL: concentration 0.5 μg/ml; for inhibition at 1 µg/mL: concentration 1.0 μg/ml; for reverse transcriptase inhibiting effect compared with Nevirapin and AZT, in words: dose dependent, lower than AZT
Method: The compounds may be sorted into group of the non-nucleoside type reverse transcriptase inhibitors. Tests were performed on Moloney murine leukemia virus reverse transcriptase that is considered as a good model of the HIV reverse transcriptase enzyme. The experimental assembly was the following.
The assay measures the incorporation of (3H)dTTP into cDNA using poly(dA) template and oligo(dT)12-18 primer. The reaction was carried out in 20 μl volume.
The reaction was started by addition of 5U reverse transcriptase
The reaction mixture was incubated for 40 min at 37° C. Then 15 μl of the reaction mixture was loaded on Whatman DE81 filter discs and filters were washed sequentially with 5% disodium hidrogen phosphate buffer, with water and with 96% (v/v) ethanol. After drying, the filters were placed into scintillation cocktail (OptiPhase, HiSafe, Wallac) and the radioactivity was measured in a Packard Tri-Carb 2200 scintillation counter.
Two compounds with known inhibitory activity were used in the experiments as positive control. AZT is a nucleoside analog while the compound Nevirapin is a non-nucleoside type inhibitor. Nevirapine binds to the so called benzodiazepine binding site of the enzyme. The applied concentrations of the test compounds were in the 0.2-2 μg/ml concentration range.

HepG2 cells = assay: LDH enzyme activity in hypoxia exposed HepG2 cells; format: cell-based; conditions: Homo sapiens, 30 μg/ml, hypoxia 1% O2 24 hours, Hypoxic control = 100, read-out: Relative LDH content, %
Method: HepG2 cell were cultured in DMEM medium supplemented with 10% FCS in 5% CO2 containing air at 37° C. 10^5 cells were plated in the wells of Costar 24-well culture plates in 1 ml medium. On the following day, cells were treated with the test compounds in a concentration of 30 μg/ml, then cells were exposed to hypoxia treatment (1% O2, 5% CO2 in nitrogen gas) for 24 hours. A part of the control cultures were treated with water used as the solvent, and another part of them was not exposed to hypoxia. At the end of the hypoxic treatment, medium was removed and cells were washed twice with cold PBS. Cells lysates were prepared in 0.05% Triton X-100 containing phosphate buffer (0.05 M) and after centrifugation (2 min. […]) the LDH activity of the supernatant was determined on the basis of NADH consumption in the presence of sodium piruvate substrate.
The LDH activity of the cells treated with the test compounds and compared to the activity of the control exposed to hypoxia is shown in Table 6.

CD-1 female mice = assay: Prevention of streptozotocin (SZ)-induced type I diabetes mellitus on mice, blood glucose; format: in vivo, mouse
Method: The experiments were carried out on CD-1 female mice weighing 17-19 g (Charles River, Hungary). The animals were divided into three groups. Each group consisted of 10 animals. The first group received 160 mg/kg of streptozotocin, i.p. (Sigma), the second group received 160 mg/kg of streptozotocin, and 200 mg/kg of the compound of Example 2 p.o., the third group served as the control. The blood glucose concentration was measured on the third day. The animals were killed, serum samples were taken for insulin determination, and pancreases were removed for histological studies. The blood glucose concentrations can be seen in Table 3.

SMILES	IC50 [1]	responders at 1 mg/kg (male SPRD rats)	responders at 5 mg/kg (male SPRD rats)	effect on survival of reperfusion arrhythmia, in words (male SPRD rats)	CPTI test in % [2]	Activity (HSP-70 promoter luciferase) [3]	inhibition at 0.2 µg/mL ([4]; concentration 0.2 μg/ml, read-out: Enzyme inhibition, %)	inhibition at 0.5 µg/mL ([4]; read-out: Enzyme inhibition, %)	inhibition at 1 µg/mL ([4]; read-out: Enzyme inhibition, %)	activity at 30 µg/mL (HepG2 cells)	GLUCOSE (mean ± s.d.) (CD-1 female mice; 160 mg/kg streptozotocin i.p. + 200 mg/kg compound p.o., blood, third day, control 4.78 ± 2.13)	blood glucose concentration enhanced by streptozotocin, in words (CD-1 female mice; 200 mg/kg p.o.)	inhibition at 2 µg/mL ([4]; concentration 2 μg/ml, read-out: Enzyme inhibition, %)	reverse transcriptase inhibiting effect compared with Nevirapin and AZT, in words [4]
NC(C=Cc1ccccc1)=NOCCCN1CCCCC1 [Example 1, O-(3-Piperidino-propyl)-cinnamic Acid Amidoxime Dihydrochloride]	13.9 µM	70%	46%	similarly outstanding effect	60.1 ± 2.1%	107	6%	29%	44%					
COc1ccc(C=CC(N)=NOCCCN2CCCCC2)cc1OC [Example 2, O-(3-Piperidino-propyl)-3,4-Dimethoxycinnamic Acid Amidoxime Hydrochloride]	15 µM	41.7%	100%							118%	8.16 ± 0.65	remarkably reduces the blood glucose concentration		
NC(C=Cc1cccnc1)=NOCCCN1CCCCC1 [Example 3, O-(3-Piperidino-propyl)-3-(3-Pyridyl)acrylic Acid Amidoxime Hydrochloride]	8.32 µM		40%		68.8 ± 3.2%	207		7%	45%				70%	higher than that of Nevirapin
NC(C=Cc1ccccc1)=NOCC(O)CN1CCCCC1 (stereo not drawn) [Example 4, O-(3-Piperidino-2-hydroxy-propyl)-cinnamic Acid Amidoxime Dihydrochloride]	27 µM	16.7%	81.8%	similarly outstanding effect		250				118%				higher than that of Nevirapin
